Assay results from patent US9650334B2 (AbbVie Deutschland GmbH & Co. KG, priority 2013, dated 2017).

Biological target: T1, human GlyT1c transporter (Homo sapiens, UniProt P48067)
T1 sequence (P48067 1-706): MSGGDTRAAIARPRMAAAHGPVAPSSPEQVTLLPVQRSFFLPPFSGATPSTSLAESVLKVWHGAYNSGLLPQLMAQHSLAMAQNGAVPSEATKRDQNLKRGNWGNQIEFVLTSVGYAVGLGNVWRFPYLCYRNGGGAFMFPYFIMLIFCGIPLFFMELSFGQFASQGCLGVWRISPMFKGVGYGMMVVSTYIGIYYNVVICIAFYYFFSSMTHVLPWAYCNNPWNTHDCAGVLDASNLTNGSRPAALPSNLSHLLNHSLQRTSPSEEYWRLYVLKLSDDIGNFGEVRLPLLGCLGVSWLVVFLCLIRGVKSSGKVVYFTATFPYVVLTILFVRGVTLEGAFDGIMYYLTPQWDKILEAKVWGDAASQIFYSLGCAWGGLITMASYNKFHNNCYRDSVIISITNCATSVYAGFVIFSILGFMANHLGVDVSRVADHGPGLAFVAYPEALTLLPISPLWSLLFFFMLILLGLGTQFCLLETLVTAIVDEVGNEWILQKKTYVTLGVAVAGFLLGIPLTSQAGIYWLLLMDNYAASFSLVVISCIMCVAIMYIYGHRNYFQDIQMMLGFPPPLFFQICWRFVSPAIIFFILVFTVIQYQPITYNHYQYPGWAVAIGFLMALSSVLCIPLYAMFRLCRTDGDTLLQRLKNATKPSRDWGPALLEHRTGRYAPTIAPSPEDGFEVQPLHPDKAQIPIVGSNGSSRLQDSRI
Test: Radioligand binding assays using recombinant CHO cell membranes expressing human GlyT1
Conditions: Ki, radioligand binding to human GlyT1c transporter-expressing CHO cell membranes

Row | Compound | Ki
1 | Cn1cnc(S(=O)(=O)N2C[C@@H](Nc3ccc(OC(F)(F)F)c(C#N)c3)[C@H](c3ccccc3)C2)c1 (racemic) [Example 102, 5-({trans-1-[(1-methyl-1H-imidazol-4-yl)sulfonyl]-4-phenylpyrrolidin-3-yl}amino)-2-(trifluoromethoxy)benzonitrile] | ≤ 1 µM
2 | Cc1cccc(CN[C@@H]2CN(S(=O)(=O)c3cn(C)cn3)C[C@H]2c2ccc(F)cc2)c1 (relative stereo) [Example 154, trans-4-(4-fluorophenyl)-N-(3-methylbenzyl)-1-[(1-methyl-1H-imidazol-4-yl)sulfonyl]pyrrolidin-3-amine] | ≤ 0.1 µM
3 | Cn1cnc(S(=O)(=O)N2C[C@@H](c3ccccc3)[C@](C)(NCc3ccc(C(F)(F)F)cc3Cl)C2)c1 (relative stereo) [Example 356, Trans-N-[2-chloro-4-(trifluoromethyl)benzyl]-3-methyl-1-[(1-methyl-1H-imidazol-4-yl)sulfonyl]-4-phenylpyrrolidin-3-amine] | ≤ 0.1 µM
4 | Cn1cnc(S(=O)(=O)N2C[C@@H](c3ccccc3)[C@](C)(Nc3cc(C(F)(F)F)ccn3)C2)c1 (relative stereo) [Example 388, N-{Trans-3-methyl-1-[(1-methyl-1H-imidazol-4-yl)sulfonyl]-4-phenylpyrrolidin-3-yl}-4-(trifluoromethyl)pyridin-2-amine] | ≤ 0.1 µM
5 | Cn1cnc(S(=O)(=O)N2C[C@@H](c3ccccc3)[C@](CO)(NCc3ccc(C(F)(F)F)cc3)C2)c1 (relative stereo) [Example 401] | ≤ 10 µM
6 | Cn1cnc(S(=O)(=O)N2C[C@@H](Nc3ccc(F)c(F)c3)[C@H](c3ncccc3F)C2)c1 (relative stereo) [Example 766, Trans-N-(3,4-difluorophenyl)-4-(3-fluoropyridin-2-yl)-1-[(1-methyl-1H-imidazol-4-yl)sulfonyl]pyrrolidin-3-amine] | ≤ 1 µM
7 | Cn1cnc(S(=O)(=O)N2CC(c3ccccc3)C3(COC(=O)N3Cc3ccc(C(F)(F)F)cc3)C2)c1 (stereo not drawn) [Example 407, Trans-7-[(1-methyl-1H-imidazol-4-yl)sulfonyl]-9-phenyl-1-[4-(trifluoromethyl)benzyl]-3-oxa-1,7-diazaspiro[4.4]nonan-2-one] | ≤ 10 µM
8 | Cn1cnc(S(=O)(=O)N2C[C@H](NCc3cnc(Br)s3)[C@@H](c3ccccc3)C2)c1 [Example 438, (3R,4S)-N-[(2-bromo-1,3-thiazol-5-yl)methyl]-1-[(1-methyl-1H-imidazol-4-yl)sulfonyl]-4-phenylpyrrolidin-3-amine] | ≤ 1 µM
9 | Cn1cnc(S(=O)(=O)N2C[C@H](NCCCCC3OCC(C)(C)CO3)[C@@H](c3ccc(F)cc3)C2)c1 [Example 684] | ≤ 1 µM
10 | CCCCNC(=O)O[C@@H]1CN(S(=O)(=O)c2cn(C)cn2)C[C@H]1c1ccc(F)cc1 [Example 699, (3S,4R)-4-(4-fluorophenyl)-1-[(1-methyl-1H-imidazol-4-yl)sulfonyl]pyrrolidin-3-yl butylcarbamate] | ≤ 1 µM
11 | Cn1cnc(S(=O)(=O)N2C[C@H](Nc3cc(OCC(F)(F)F)ccn3)[C@@H](c3ccccc3)C2)c1 [Example 809, N-{(3R,4S)-1-[(1-methyl-1H-imidazol-4-yl)sulfonyl]-4-phenylpyrrolidin-3-yl}-4-(2,2,2-trifluoroethoxy)pyridin-2-amine] | ≤ 0.01 µM
12 | Cn1cnc(S(=O)(=O)N2C[C@H](c3ccc(F)cc3)[C@@H](N3CCS(=O)(=O)CC3)C2)c1 [Example 864, 4-{(3R,4S)-4-(4-fluorophenyl)-1-[(1-methyl-1H-imidazol-4-yl)sulfonyl]pyrrolidin-3-yl}thiomorpholine 1,1-dioxide] | ≤ 10 µM
13 | C=C(C)C1CCC(C)C(N[C@H]2CN(S(=O)(=O)c3cn(C)cn3)C[C@@H]2c2ccc(F)cc2)C1 (stereo partly drawn) [Example 867, (3R,4S)-4-(4-fluorophenyl)-1-[(1-methyl-1H-imidazol-4-yl)sulfonyl]-N-[2-methyl-5-(prop-1-en-2-yl)cyclohexyl]pyrrolidin-3-amine] | ≤ 0.1 µM
14 | Cn1cnc(S(=O)(=O)N2C[C@H](NC(c3ccccc3)C(F)(F)F)[C@@H](c3ccc(F)cc3)C2)c1 (stereo partly drawn) [Example 868, (3R,4S)-4-(4-fluorophenyl)-1-[(1-methyl-1H-imidazol-4-yl)sulfonyl]-N-(2,2,2-trifluoro-1-phenylethyl)pyrrolidin-3-amine] | ≤ 10 µM
15 | Cn1cnc(S(=O)(=O)N2CC3CCCCC3(NCc3ccc(C(F)(F)F)cc3Cl)C2)c1 (stereo not shown) [Example 869, N-[2-chloro-4-(trifluoromethyl)benzyl]-2-[(1-methyl-1H-imidazol-4-yl)sulfonyl]octahydro-3aH-isoindol-3a-amine] | ≤ 0.01 µM
16 | Cn1cnc(S(=O)(=O)N2CC3CCCCC3(NC(=O)c3cccc(C(F)(F)F)c3Cl)C2)c1 (stereo not shown) [Example 870, 2-chloro-N-{2-[(1-methyl-1H-imidazol-4-yl)sulfonyl]octahydro-3aH-isoindol-3a-yl}-3-(trifluoromethyl)benzamide] | ≤ 0.1 µM
17 | CCCCCCN1CCCC2CN(S(=O)(=O)c3cn(C)cn3)CC21 (stereo not shown) [Example 872, 1-hexyl-6-[(1-methyl-1H-imidazol-4-yl)sulfonyl]octahydro-1H-pyrrolo[3,4-b]pyridine] | > 10 µM

Second part, the compound after the results:

Row | Ki | Compound
18 | ≤ 10 µM | CCS(=O)(=O)N1C[C@@H](NC(=O)c2ccc(C(F)(F)F)cc2)[C@H](c2ccccc2)C1 (relative stereo) [Example 122, N-[trans-1-(ethylsulfonyl)-4-phenylpyrrolidin-3-yl]-4-(trifluoromethyl)benzamide]
19 | ≤ 1 µM | Cn1cnc(S(=O)(=O)N2C[C@@H](C(=O)c3cccc(F)c3)[C@H](c3ccc(F)cc3)C2)c1 (relative stereo) [Example 301]
20 | ≤ 0.1 µM | Cn1cnc(S(=O)(=O)N2C[C@@H](NCc3ccc(C(F)(F)F)cc3Cl)[C@H](c3ncccc3F)C2)c1 (relative stereo) [Example 761, Trans-N-[2-chloro-4-(trifluoromethyl)benzyl]-4-(3-fluoropyridin-2-yl)-1-[(1-methyl-1H-imidazol-4-yl)sulfonyl]pyrrolidin-3-amine]
21 | ≤ 0.1 µM | Cn1cnc(S(=O)(=O)N2C[C@@H]3c4ccccc4C[C@@]3(NCc3ccc(C(F)(F)F)cc3Cl)C2)c1 (relative stereo) [Example 885, trans-N-[2-chloro-4-(trifluoromethyl)benzyl]-2-[(1-methyl-1H-imidazol-4-yl)sulfonyl]-2,3,3a,8-tetrahydroindeno[1,2-c]pyrrol-8a(1H)-amine]
22 | ≤ 1 µM | Cc1nc(CN[C@H]2CN(S(=O)(=O)c3cn(C)cn3)C[C@@H]2c2ccccc2)sc1Br [Example 559, (3R,4S)-N-[(5-bromo-4-methyl-1,3-thiazol-2-yl)methyl]-1-[(1-methyl-1H-imidazol-4-yl)sulfonyl]-4-phenylpyrrolidin-3-amine]
23 | ≤ 0.1 µM | Cn1cnc(S(=O)(=O)N2CC(Nc3cccc(OC(F)(F)F)c3)C(C3CCCN(C4CC4)C3)C2)c1 (stereo not shown) [Example 641, 4-[-1-cyclopropylpiperidin-3-yl]-1-[(1-methyl-1H-imidazol-4-yl)sulfonyl]-N-[3-(trifluoromethoxy)phenyl]pyrrolidin-3-amine]
24 | ≤ 10 µM | CCCCc1cn([C@H]2CN(S(=O)(=O)c3cn(C)cn3)C[C@@H]2c2ccccc2)nn1 [Example 668, 4-butyl-1-{(3R,4S)-1-[(1-methyl-1H-imidazol-4-yl)sulfonyl]-4-phenylpyrrolidin-3-yl}-1H-1,2,3-triazole]
25 | ≤ 1 µM | CCCCC1CN([C@H]2CN(S(=O)(=O)c3cn(C)cn3)C[C@@H]2c2ccc(F)cc2)C(=O)O1 (stereo partly drawn) [Example 863, 5-butyl-3-{(3R,4S)-4-(4-fluorophenyl)-1-[(1-methyl-1H-imidazol-4-yl)sulfonyl]pyrrolidin-3-yl}-1,3-oxazolidin-2-one]
26 | ≤ 0.1 µM | Cn1cnc(S(=O)(=O)N2CC3CCCCC3(NC(=O)c3ccc(Cl)cc3Cl)C2)c1 (stereo not shown) [Example 871, 2,4-dichloro-N-{2-[(1-methyl-1H-imidazol-4-yl)sulfonyl]octahydro-3aH-isoindol-3a-yl}benzamide]
27 | ≤ 10 µM | Cn1cnc(S(=O)(=O)N2CC3CCCN(C(=O)c4ccc(Cl)cc4Cl)C3C2)c1 (stereo not shown) [Example 873, (2,4-dichlorophenyl){6-[(1-methyl-1H-imidazol-4-yl)sulfonyl]octahydro-1H-pyrrolo[3,4-b]pyridin-1-yl}methanone]

Same assay, conditions: radioligand binding to human GlyT1c transporter-expressing CHO cell membranes

Row | Ki | Compound
28 | ≤ 10 µM | 2,2-difluoro-N-{(3R,4S)-4-(4-fluorophenyl)-1-[(1-methyl-1H-imidazol-4-yl)sulfonyl]pyrrolidin-3-yl}pentanamide [Example 700]
29 | ≤ 10 µM | 4-({(3R,4S)-1-[(1-methyl-1H-imidazol-4-yl)sulfonyl]-4-phenylpyrrolidin-3-yl}amino)-2,3-dihydro-1H-isoindol-1-one [Example 421]
30 | ≤ 0.1 µM | 6-(cyclohexyloxy)-N-{(3R,4S)-4-(4-fluorophenyl)-1-[(1-methyl-1H-imidazol-4-yl)sulfonyl]pyrrolidin-3-yl}pyrimidin-4-amine [Example 721]

Row | Compound | Ki
31 | 6-butoxy-N-{(3R,4S)-4-(4-fluorophenyl)-1-[(1-methyl-1H-imidazol-4-yl)sulfonyl]pyrrolidin-3-yl}pyrimidin-4-amine [Example 717] | ≤ 0.1 µM
